Laboratory results as given in the kinase profiling compilation of Christmann-Franck et al. (2016).

Key:
Test in all cases: radiometric filter-binding kinase assay, Kinase HotSpot
Settings in all cases: compound 0.5 µM; ATP 10 µM
MAPK3 (human) = MAPK3 (human) (UniProt P27361)
[1] = biological target: TYK2 JH1 catalytic (human) (UniProt P29597)
PAK4 (human) = PAK4 (human) (UniProt O96013)
CDK5 CDK5R1 p25 (human) = CDK5 CDK5R1 p25 (human) (UniProt Q00535+Q15078)
PRKCH (human) = PRKCH (human) (UniProt P24723)
AKT2 (human) = AKT2 (human) (UniProt P31751)
CDC42BPA (human) = CDC42BPA (human) (UniProt Q5VT25)
MAPK13 (human) = MAPK13 (human) (UniProt O15264)
PTK2 (human) = PTK2 (human) (UniProt Q05397)
MAP4K5 (human) = MAP4K5 (human) (UniProt Q9Y4K4)
PLK1 (human) = PLK1 (human) (UniProt P53350)
CSNK1E (human) = CSNK1E (human) (UniProt P49674)
NTRK2 (human) = NTRK2 (human) (UniProt Q16620)
PRKCI (human) = PRKCI (human) (UniProt P41743)
CDK9 CCNT1 (human) = CDK9 CCNT1 (human) (UniProt P50750+O60563)
MARK4 (human) = MARK4 (human) (UniProt Q96L34)
CAMK1 (human) = CAMK1 (human) (UniProt Q14012)
FGFR3 (human) = FGFR3 (human) (UniProt P22607)
NUAK1 (human) = NUAK1 (human) (UniProt O60285)
PRKCA (human) = PRKCA (human) (UniProt P17252)
IGF1R (human) = IGF1R (human) (UniProt P08069)
IGF1R (human), sequence (P08069 whole entry, looked up): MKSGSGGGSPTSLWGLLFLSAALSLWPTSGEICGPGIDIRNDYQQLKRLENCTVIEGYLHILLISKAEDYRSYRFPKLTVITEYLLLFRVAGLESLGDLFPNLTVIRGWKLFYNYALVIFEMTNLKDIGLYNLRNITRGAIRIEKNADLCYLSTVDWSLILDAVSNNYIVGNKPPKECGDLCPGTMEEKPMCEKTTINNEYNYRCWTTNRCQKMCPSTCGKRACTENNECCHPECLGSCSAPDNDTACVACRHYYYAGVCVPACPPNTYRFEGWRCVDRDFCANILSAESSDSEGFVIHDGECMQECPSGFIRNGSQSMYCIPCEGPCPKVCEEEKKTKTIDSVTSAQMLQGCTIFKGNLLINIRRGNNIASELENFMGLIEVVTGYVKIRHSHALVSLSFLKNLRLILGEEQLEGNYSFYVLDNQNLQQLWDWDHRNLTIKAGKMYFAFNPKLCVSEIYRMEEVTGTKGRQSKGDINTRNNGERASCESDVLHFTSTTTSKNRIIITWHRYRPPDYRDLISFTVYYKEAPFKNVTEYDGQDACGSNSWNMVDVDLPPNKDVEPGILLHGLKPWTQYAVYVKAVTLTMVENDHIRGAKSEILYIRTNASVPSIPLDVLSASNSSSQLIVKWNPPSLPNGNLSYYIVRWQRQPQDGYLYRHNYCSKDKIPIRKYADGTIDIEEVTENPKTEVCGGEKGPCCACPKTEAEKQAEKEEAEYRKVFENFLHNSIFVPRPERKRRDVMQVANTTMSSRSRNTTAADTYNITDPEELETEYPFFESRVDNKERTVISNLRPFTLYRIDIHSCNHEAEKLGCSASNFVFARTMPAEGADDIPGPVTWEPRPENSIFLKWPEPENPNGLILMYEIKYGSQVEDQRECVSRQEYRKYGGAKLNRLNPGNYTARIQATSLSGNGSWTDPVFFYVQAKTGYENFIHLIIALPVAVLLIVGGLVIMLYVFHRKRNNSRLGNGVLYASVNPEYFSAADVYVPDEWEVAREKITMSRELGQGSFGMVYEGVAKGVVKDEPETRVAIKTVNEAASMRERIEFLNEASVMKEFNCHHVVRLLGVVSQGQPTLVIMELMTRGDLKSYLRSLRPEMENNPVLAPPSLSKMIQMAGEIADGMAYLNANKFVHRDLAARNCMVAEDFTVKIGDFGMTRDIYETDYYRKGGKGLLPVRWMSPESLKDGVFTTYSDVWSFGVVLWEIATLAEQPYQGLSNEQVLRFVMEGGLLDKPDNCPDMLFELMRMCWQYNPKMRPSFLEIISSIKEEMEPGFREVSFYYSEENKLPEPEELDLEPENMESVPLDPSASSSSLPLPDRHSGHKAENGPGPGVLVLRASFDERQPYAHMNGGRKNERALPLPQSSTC

MAPK11 (human) = MAPK11 (human) (UniProt Q15759)
RIPK2 (human) = RIPK2 (human) (UniProt O43353)
CHUK (human) = CHUK (human) (UniProt O15111)
RPS6KA1 KD1 KD2 (human) = RPS6KA1 KD1 KD2 (human) (UniProt Q15418)
FYN (human) = FYN (human) (UniProt P06241)
FYN (human), sequence (P06241 whole entry, looked up): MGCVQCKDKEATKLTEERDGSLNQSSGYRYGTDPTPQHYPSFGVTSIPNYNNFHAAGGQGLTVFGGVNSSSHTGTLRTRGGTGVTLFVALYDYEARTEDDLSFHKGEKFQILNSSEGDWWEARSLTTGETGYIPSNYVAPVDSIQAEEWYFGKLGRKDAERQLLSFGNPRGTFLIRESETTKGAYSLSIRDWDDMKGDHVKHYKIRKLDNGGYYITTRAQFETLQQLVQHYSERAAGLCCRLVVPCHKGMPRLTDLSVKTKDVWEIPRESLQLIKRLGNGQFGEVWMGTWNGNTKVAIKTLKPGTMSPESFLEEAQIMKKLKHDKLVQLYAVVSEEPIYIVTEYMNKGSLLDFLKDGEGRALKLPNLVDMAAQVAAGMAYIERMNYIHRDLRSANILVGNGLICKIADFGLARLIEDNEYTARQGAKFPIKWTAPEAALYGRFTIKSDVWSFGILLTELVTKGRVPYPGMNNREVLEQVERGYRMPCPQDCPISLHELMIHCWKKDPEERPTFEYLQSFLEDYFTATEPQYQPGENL

ADRBK1 (human) = ADRBK1 (human) (UniProt P25098)
EPHA3 (human) = EPHA3 (human) (UniProt P29320)
STK17A (human) = STK17A (human) (UniProt Q9UEE5)
TBK1 (human) = TBK1 (human) (UniProt Q9UHD2)
NTRK3 (human) = NTRK3 (human) (UniProt Q16288)
TSSK2 (human) = TSSK2 (human) (UniProt Q96PF2)
MAP3K10 (human) = MAP3K10 (human) (UniProt Q02779)
HIPK2 (human) = HIPK2 (human) (UniProt Q9H2X6)
PRKX (human) = PRKX (human) (UniProt P51817)
NTRK1 (human) = NTRK1 (human) (UniProt P04629)
AKT3 (human) = AKT3 (human) (UniProt Q9Y243)
MAPK12 (human) = MAPK12 (human) (UniProt P53778)
ERBB2 (human) = ERBB2 (human) (UniProt P04626)
CLK3 (human) = CLK3 (human) (UniProt P49761)
WNK3 (human) = WNK3 (human) (UniProt Q9BYP7)
WNK3 (human), sequence (Q9BYP7 whole entry, looked up): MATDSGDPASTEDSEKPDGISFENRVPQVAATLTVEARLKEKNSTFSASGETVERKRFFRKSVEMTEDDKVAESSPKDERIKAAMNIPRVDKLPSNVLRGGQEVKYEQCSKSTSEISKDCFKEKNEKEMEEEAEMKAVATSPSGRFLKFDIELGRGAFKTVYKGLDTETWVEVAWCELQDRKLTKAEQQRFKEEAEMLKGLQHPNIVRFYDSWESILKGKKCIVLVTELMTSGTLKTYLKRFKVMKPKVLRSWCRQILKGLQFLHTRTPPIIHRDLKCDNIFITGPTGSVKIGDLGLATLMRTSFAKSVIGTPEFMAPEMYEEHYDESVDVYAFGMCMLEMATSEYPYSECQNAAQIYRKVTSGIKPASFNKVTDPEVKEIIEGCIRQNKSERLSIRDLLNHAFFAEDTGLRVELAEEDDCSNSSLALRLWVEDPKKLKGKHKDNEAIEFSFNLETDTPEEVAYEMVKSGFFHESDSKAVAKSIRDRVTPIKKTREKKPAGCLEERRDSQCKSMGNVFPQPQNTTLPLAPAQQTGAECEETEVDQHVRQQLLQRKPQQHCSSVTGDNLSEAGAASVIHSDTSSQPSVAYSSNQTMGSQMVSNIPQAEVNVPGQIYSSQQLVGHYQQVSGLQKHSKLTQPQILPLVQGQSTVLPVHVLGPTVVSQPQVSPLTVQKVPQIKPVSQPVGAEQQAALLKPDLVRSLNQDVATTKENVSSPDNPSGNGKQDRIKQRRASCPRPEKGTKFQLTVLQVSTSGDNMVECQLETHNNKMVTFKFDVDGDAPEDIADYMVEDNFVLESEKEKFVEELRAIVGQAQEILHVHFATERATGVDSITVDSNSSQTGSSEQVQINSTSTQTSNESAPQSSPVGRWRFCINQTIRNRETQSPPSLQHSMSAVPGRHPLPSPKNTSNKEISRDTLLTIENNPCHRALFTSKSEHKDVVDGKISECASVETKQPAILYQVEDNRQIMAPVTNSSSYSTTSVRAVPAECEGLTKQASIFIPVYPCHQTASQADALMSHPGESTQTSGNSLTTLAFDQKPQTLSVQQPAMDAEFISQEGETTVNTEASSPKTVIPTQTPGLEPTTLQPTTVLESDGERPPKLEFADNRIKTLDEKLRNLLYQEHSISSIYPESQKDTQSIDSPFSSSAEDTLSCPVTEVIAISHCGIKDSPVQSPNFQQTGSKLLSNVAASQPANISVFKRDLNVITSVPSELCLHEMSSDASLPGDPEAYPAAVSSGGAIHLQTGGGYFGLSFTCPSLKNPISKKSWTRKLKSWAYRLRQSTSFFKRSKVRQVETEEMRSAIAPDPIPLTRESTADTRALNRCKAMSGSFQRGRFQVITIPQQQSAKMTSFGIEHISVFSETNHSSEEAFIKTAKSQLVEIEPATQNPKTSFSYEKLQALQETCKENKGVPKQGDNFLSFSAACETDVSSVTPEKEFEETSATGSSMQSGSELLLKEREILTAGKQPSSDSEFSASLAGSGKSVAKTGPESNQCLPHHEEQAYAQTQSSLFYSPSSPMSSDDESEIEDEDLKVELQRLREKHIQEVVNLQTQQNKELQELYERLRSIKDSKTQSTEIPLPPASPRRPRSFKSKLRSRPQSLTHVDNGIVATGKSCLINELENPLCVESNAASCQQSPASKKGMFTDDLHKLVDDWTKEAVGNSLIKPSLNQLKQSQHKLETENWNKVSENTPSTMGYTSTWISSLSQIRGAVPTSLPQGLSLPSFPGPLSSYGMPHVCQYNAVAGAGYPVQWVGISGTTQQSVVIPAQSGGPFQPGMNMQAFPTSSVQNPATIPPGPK

PIM2 (human) = PIM2 (human) (UniProt Q9P1W9)

PAK4 (human), sequence (O96013 whole entry, looked up): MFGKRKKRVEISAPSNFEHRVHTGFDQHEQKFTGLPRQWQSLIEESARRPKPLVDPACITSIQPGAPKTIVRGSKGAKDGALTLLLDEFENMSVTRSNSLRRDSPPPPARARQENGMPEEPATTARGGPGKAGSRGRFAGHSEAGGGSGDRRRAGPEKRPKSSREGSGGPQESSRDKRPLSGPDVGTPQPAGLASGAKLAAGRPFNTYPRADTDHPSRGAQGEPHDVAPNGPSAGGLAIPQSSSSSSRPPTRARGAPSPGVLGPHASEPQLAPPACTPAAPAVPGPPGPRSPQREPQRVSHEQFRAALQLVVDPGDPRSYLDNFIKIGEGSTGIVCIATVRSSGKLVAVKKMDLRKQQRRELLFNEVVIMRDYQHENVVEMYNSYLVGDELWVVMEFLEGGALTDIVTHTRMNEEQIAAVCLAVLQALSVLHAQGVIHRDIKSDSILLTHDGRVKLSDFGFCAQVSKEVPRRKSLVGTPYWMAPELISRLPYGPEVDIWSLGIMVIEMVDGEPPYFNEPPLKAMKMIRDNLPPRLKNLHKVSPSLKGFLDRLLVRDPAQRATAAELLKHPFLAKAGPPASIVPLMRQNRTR
CDK5 CDK5R1 p25 (human), sequence (Q00535 whole entry, looked up): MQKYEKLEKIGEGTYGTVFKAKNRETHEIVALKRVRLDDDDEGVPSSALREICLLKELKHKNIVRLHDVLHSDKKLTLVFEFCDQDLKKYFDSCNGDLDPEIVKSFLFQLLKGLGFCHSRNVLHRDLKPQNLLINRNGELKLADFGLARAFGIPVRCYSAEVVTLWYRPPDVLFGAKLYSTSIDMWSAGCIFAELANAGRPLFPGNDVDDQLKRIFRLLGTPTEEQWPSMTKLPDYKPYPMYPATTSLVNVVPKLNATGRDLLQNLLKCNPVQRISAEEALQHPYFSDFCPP
CDK5 CDK5R1 p25 (human), sequence (Q15078 whole entry, looked up): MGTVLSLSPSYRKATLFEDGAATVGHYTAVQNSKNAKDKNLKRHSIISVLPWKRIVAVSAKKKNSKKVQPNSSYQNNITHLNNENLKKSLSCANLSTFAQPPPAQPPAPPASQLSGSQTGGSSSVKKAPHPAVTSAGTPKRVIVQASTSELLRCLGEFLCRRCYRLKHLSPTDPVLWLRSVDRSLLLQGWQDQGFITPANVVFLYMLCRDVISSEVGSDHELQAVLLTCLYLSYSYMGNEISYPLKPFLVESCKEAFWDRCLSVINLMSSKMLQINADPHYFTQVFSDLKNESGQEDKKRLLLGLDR

Cc1cc2ncc(-c3ccccc3)nc2cc1C gave a residual activity (MAPK3 (human)) of 106%, a residual activity [1] of 97.6% and a residual activity (PAK4 (human)) of 105%. It also gave a residual activity (CDK5 CDK5R1 p25 (human)) of 96.6%, a residual activity (PRKCH (human)) of 100% and a residual activity (AKT2 (human)) of 99.7%. The residual activity (CDC42BPA (human)) was 81.2%, the residual activity (MAPK13 (human)) was 107% and the residual activity (PTK2 (human)) was 92.5%. It also gave a residual activity (MAP4K5 (human)) of 89.3%, a residual activity (PLK1 (human)) of 101% and a residual activity (CSNK1E (human)) of 85.5%. It also gave a residual activity (NTRK2 (human)) of 103%, a residual activity (PRKCI (human)) of 98% and a residual activity (CDK9 CCNT1 (human)) of 93.9%. It also gave a residual activity (MARK4 (human)) of 105%, a residual activity (CAMK1 (human)) of 96.2% and a residual activity (FGFR3 (human)) of 98%. The residual activity (NUAK1 (human)) was 92.3%, the residual activity (PRKCA (human)) was 90.5% and the residual activity (IGF1R (human)) was 86.8%. The residual activity (MAPK11 (human)) was 96.8%, the residual activity (RIPK2 (human)) was 98.3% and the residual activity (CHUK (human)) was 86.9%. The residual activity (RPS6KA1 KD1 KD2 (human)) was 99.2%, the residual activity (FYN (human)) was 99.4% and the residual activity (ADRBK1 (human)) was 92.5%. The residual activity (EPHA3 (human)) was 109%, the residual activity (STK17A (human)) was 80% and the residual activity (TBK1 (human)) was 93.8%. The residual activity (NTRK3 (human)) was 88.2%, the residual activity (TSSK2 (human)) was 87.5% and the residual activity (MAP3K10 (human)) was 97.8%. It also gave a residual activity (HIPK2 (human)) of 97%, a residual activity (PRKX (human)) of 97.9% and a residual activity (NTRK1 (human)) of 105%. It also gave a residual activity (AKT3 (human)) of 91.8%, a residual activity (MAPK12 (human)) of 87.3% and a residual activity (ERBB2 (human)) of 97.4%. For the same compound, the residual activity (CLK3 (human)) was 92.8%, the residual activity (WNK3 (human)) was 103% and the residual activity (PIM2 (human)) was 81%.

Work on CC(C)[C@H](CO)Nc1nc(Nc2cccc(Cl)c2)c2ncn(C(C)C)c2n1 yielded a residual activity (MAPK3 (human)) of 104%, a residual activity [1] of 95.2% and a residual activity (PAK4 (human)) of 99.5%. It also gave a residual activity (CDK5 CDK5R1 p25 (human)) of 3.87%, a residual activity (PRKCH (human)) of 92.7% and a residual activity (AKT2 (human)) of 90%. It also gave a residual activity (CDC42BPA (human)) of 92.3%, a residual activity (MAPK13 (human)) of 122% and a residual activity (PTK2 (human)) of 85.9%. For the same compound, the residual activity (MAP4K5 (human)) was 97.5%, the residual activity (PLK1 (human)) was 89.2% and the residual activity (CSNK1E (human)) was 87.3%. For the same compound, the residual activity (NTRK2 (human)) was 33.4%, the residual activity (PRKCI (human)) was 96.6% and the residual activity (CDK9 CCNT1 (human)) was 65%. For the same compound, the residual activity (MARK4 (human)) was 89.8%, the residual activity (CAMK1 (human)) was 110% and the residual activity (FGFR3 (human)) was 99.2%. It also gave a residual activity (NUAK1 (human)) of 71.1%, a residual activity (PRKCA (human)) of 115% and a residual activity (IGF1R (human)) of 100%. For the same compound, the residual activity (MAPK11 (human)) was 109%, the residual activity (RIPK2 (human)) was 88.1% and the residual activity (CHUK (human)) was 106%. The residual activity (RPS6KA1 KD1 KD2 (human)) was 77.3%, the residual activity (FYN (human)) was 48.9% and the residual activity (ADRBK1 (human)) was 103%. It also gave a residual activity (EPHA3 (human)) of 105%, a residual activity (STK17A (human)) of 95% and a residual activity (TBK1 (human)) of 93%. For the same compound, the residual activity (NTRK3 (human)) was 15%, the residual activity (TSSK2 (human)) was 97.5% and the residual activity (MAP3K10 (human)) was 98%. For the same compound, the residual activity (HIPK2 (human)) was 86.3%, the residual activity (PRKX (human)) was 97.4% and the residual activity (NTRK1 (human)) was 67.3%. The residual activity (AKT3 (human)) was 102%, the residual activity (MAPK12 (human)) was 106% and the residual activity (ERBB2 (human)) was 97.1%. For the same compound, the residual activity (CLK3 (human)) was 89.7%, the residual activity (WNK3 (human)) was 89.1% and the residual activity (PIM2 (human)) was 105%.

Compound Nc1nc(Nc2ccc(S(N)(=O)=O)cc2)nn1C(=S)Nc1c(F)cccc1F has a residual activity (MAPK3 (human)) of 78.9%, a residual activity [1] of 5.11% and a residual activity (PAK4 (human)) of 47.6%. For the same compound, the residual activity (CDK5 CDK5R1 p25 (human)) was 0.156%, the residual activity (PRKCH (human)) was 45.7% and the residual activity (AKT2 (human)) was 103%. For the same compound, the residual activity (CDC42BPA (human)) was 54.6%, the residual activity (MAPK13 (human)) was 77.1% and the residual activity (PTK2 (human)) was 25.3%. It also gave a residual activity (MAP4K5 (human)) of 1.71%, a residual activity (PLK1 (human)) of 92.1% and a residual activity (CSNK1E (human)) of 91.8%. It also gave a residual activity (NTRK2 (human)) of 11.8%, a residual activity (PRKCI (human)) of 78.9% and a residual activity (CDK9 CCNT1 (human)) of 15.6%. The residual activity (MARK4 (human)) was 2.33%, the residual activity (FGFR3 (human)) was 4.96% and the residual activity (NUAK1 (human)) was 2.13%. For the same compound, the residual activity (PRKCA (human)) was 46.2%, the residual activity (IGF1R (human)) was 0.625% and the residual activity (MAPK11 (human)) was 78.5%. The residual activity (RIPK2 (human)) was 19.7%, the residual activity (CHUK (human)) was 54.4% and the residual activity (RPS6KA1 KD1 KD2 (human)) was 5.34%. The residual activity (FYN (human)) was 24.8%, the residual activity (ADRBK1 (human)) was 97.8% and the residual activity (EPHA3 (human)) was 85.9%. It also gave a residual activity (STK17A (human)) of 11.1%, a residual activity (TBK1 (human)) of 10.3% and a residual activity (NTRK3 (human)) of 3.59%. For the same compound, the residual activity (TSSK2 (human)) was 91.3%, the residual activity (MAP3K10 (human)) was 3% and the residual activity (HIPK2 (human)) was 62.1%. It also gave a residual activity (PRKX (human)) of 76.3%, a residual activity (NTRK1 (human)) of 31.7% and a residual activity (AKT3 (human)) of 96.4%. For the same compound, the residual activity (MAPK12 (human)) was 95.2%, the residual activity (ERBB2 (human)) was 104% and the residual activity (CLK3 (human)) was 4.64%. It also gave a residual activity (WNK3 (human)) of 82.2% and a residual activity (PIM2 (human)) of 106%.

In the case of CC(C)(C)c1nc2c3ccc(F)cc3c3c(=O)[nH]ccc3c2[nH]1, the residual activity (MAPK3 (human)) is reported as 85.7%, the residual activity [1] is reported as 1.48% and the residual activity (PAK4 (human)) is reported as 105%. For the same compound, the residual activity (PRKCH (human)) was 81.5%, the residual activity (AKT2 (human)) was 89.8% and the residual activity (CDC42BPA (human)) was 95.7%. For the same compound, the residual activity (MAPK13 (human)) was 104%, the residual activity (PTK2 (human)) was 35.3% and the residual activity (MAP4K5 (human)) was 65.8%. The residual activity (PLK1 (human)) was 10.5%, the residual activity (CSNK1E (human)) was 85.6% and the residual activity (NTRK2 (human)) was 16.1%. It also gave a residual activity (PRKCI (human)) of 96%, a residual activity (CDK9 CCNT1 (human)) of 100% and a residual activity (MARK4 (human)) of 44.5%. For the same compound, the residual activity (CAMK1 (human)) was 79.3%, the residual activity (FGFR3 (human)) was 93% and the residual activity (NUAK1 (human)) was 3.04%. The residual activity (PRKCA (human)) was 65.6%, the residual activity (IGF1R (human)) was 91.3% and the residual activity (MAPK11 (human)) was 83.4%. The residual activity (RIPK2 (human)) was 34.6%, the residual activity (CHUK (human)) was 102% and the residual activity (RPS6KA1 KD1 KD2 (human)) was 38.6%. For the same compound, the residual activity (FYN (human)) was 52.3%, the residual activity (ADRBK1 (human)) was 98.5% and the residual activity (EPHA3 (human)) was 89.2%. It also gave a residual activity (STK17A (human)) of 6.42%, a residual activity (TBK1 (human)) of 24% and a residual activity (NTRK3 (human)) of 6.81%. It also gave a residual activity (TSSK2 (human)) of 92.5%, a residual activity (MAP3K10 (human)) of 89.7% and a residual activity (HIPK2 (human)) of 98.7%. The residual activity (PRKX (human)) was 79.2%, the residual activity (NTRK1 (human)) was 48.7% and the residual activity (AKT3 (human)) was 76.4%. It also gave a residual activity (MAPK12 (human)) of 97.9%, a residual activity (ERBB2 (human)) of 109% and a residual activity (CLK3 (human)) of 50.5%. The residual activity (WNK3 (human)) was 90% and the residual activity (PIM2 (human)) was 90.8%.
